Test results as given in patent US20150252048A1, “SUBSTITUTED N-(3-PYRIMIDIN-4-YL)PHENYL)ACRYLAMIDE ANALOGS AS TYROSINE RECEPTOR KINASE BTK INHIBITORS” (UNIVERSITY OF UTAH RESEARCH FOUNDATION, priority 2012, published 2015).
Values joined by “and” are separate entries in the source; they are usually repeats but may differ in a detail not shown here. Identical values can stand only once. Like-named read-outs stand apart in the source and are kept apart here.

How the values were obtained:
[1] = biological target: T1, recombinant full-length human BTK kinase (Homo sapiens, UniProt Q06187); experiment: BTK kinase assay: ADP generation assay (ADP-Glo); format: biochemical; details: 60 nM BTK, MBP substrate, 60 min
T1 construct: recombinant full-length human BTK kinase with a (His)6 tag; (His)6; purchased Invitrogen Corporation, Carlsbad, Calif
Protocol: The primary assay for compound inhibitory activity was the ADP generation assay described herein. Test compounds were diluted to desired concentrations in kinase reaction buffer and briefly incubated with recombinant full-length human BTK kinase with a (His)6 tag (81.3 kDa; Invitrogen Corporation, Carlsbad, Calif.). The assay as described is based on volumes used in a standard 384 well format using solid, white-wall plates. The reaction was subsequently initiated by the addition of ATP and myelin basic protein (MBP) substrate (Millipore Corporation, Waltham, Mass.). Composition of the assay reaction mixture ([…]) was: 5% v/v DMSO, 60 nM BTK, 1.6 µM ATP, and 20 µM MBP substrate. After incubation at room temperature for 60 min, […] (Promega Corporation, Madison, Wis.) was added to each well and incubated for an additional 40 minutes. The reagent stopped the kinase reaction and depleted the unconsumed ATP. Kinase Detection reagent ([…]; Promega Corporation) was then added to each well. The Kinase Detection reagent comprises reagents to convert ADP to ATP and provide luciferase and luciferin to detect ATP. Luminescence was measured on an EnVision microplate reader (PerkinElmer). The amount of luminescence from each reaction is directly correlated with BTK kinase activity. Percent inhibition and IC50 values were calculated by comparing enzyme activity in drug-treated wells to the appropriate controls.
(§1) IC50 values are determined using GraphPad Prism 5 software. The data were entered as an X-Y plot into the software as percent inhibition for each concentration of the drug. The concentration values of the drug were log transformed and the nonlinear regression was carried out using the “sigmoidal dose-response (variable slope)” option within the GraphPad software to model the data and calculate IC50 values. The IC50 values reported are the concentration of drug at which 50% inhibition was reached.
(§2) Activity (IC50) was determined in the BTK assays describe herein below, i.e. either the ADP generation assay and/or the time-resolved FRET assay, and the data are shown in Table III. The compound number corresponds to the compound numbers used in Table I. In the table below, “ADP Assay” refers to the assay which measures production of ADP resulting from use of ATP by the kinase; and “HTRF Assay” refers to the time resolved-FRET kinase assay described in the examples. Multiple values in a given column indicate the results of more than one assay for the given compound. Representative data of the type used to determine the IC50 values for the ADP assay in Table III are shown in FIG. 8 for compounds 3, 4, and 5.

[2] = biological target: BTK (Homo sapiens, UniProt Q06187); experiment: BTK kinase assay: time resolved-FRET (HTRF) assay; format: biochemical; design: recombinant full-length human BTK kinase with a (His)6 tag; (His)6; purchased Invitrogen Corporation, Carlsbad, Calif; details: 10 nM BTK, 60 μM ATP, 1 μM substrate
Protocol: Activity of compounds was routinely confirmed using a secondary assay as described herein. The secondary assay was a time resolved-FRET kinase assay. Test compound are diluted to desired concentrations in kinase reaction buffer and briefly incubated with BTK kinase (as described above; Invitrogen). The reaction is initiated by the addition of ATP and enzyme substrate, HTRF® KinEASE™-TK Substrate-biotin (Cisbio US, Bedford, Mass.). The composition of the reaction (10 μl) was: 1% v/v DMSO, 10 nM BTK, 60 μM ATP, and 1 μM substrate. After incubation at room temperature for 60 min, the enzyme reaction is stopped by EDTA-containing buffer, which also contains europium-labeled (Eu^3+-Cryptate) anti-phosphotyrosine antibody (Cisbio) and Streptavidin-XL665 (Cisbio). The europium-labeled antibody generates a time-resolved FRET signal with the Stepavidin-XL665, which binds to the biotinylated TK substrate through the streptavidin conjugate when the substrate is phosphorylated. After one hour incubation at room temperature, fluoresence was measured with excitation of 320 nm and dual emission of 615 and 665 nm on an EnVision microplate reader. Signal is expressed in terms of a TR-FRET ratio (665:615).
as §1, §2

[3] = Pharmacokinetics in rat; format: in vivo, male Sprague Dawley rats; details: for AUC(0-t): read-out: AUC0-t
Protocol: The pharmacokinetic behavior of a representative disclosed compound, compound 3 (N-(3-(6-((3-morpholinophenyl)amino)-1H-pyrazolo[3,4-d]pyrimidin-4-yl)phenyl)acrylamide), which corresponds to compound 3 in Table I, was also evaluated in rat. A study was conducted using three male Sprague Dawley rats in each group as shown below:
The solution formulations were prepared as follows: (A) intravenous route (“i.v.”): a weighed quantity of 3 (10.45 mg) was transferred into a 10 mL clean glass vial. To this 0.231 mL of ethanol (4.5%) was added, vortexed and sonicated. To this 1.028 mL of propylene glycol (20%) was added, vortexed and sonicated. 1.543 mL of PEG400 (30%) was added, vortexed and sonicated. Finally 2.340 mL of water (45.5%) was added gradually, vortexed and sonicated to make a solution of 2 mg/mL concentration. The final solution was filtered using syringe filter (0.22 μm).; and (B) a weighed quantity of SC-1344 (27.43 mg) was transferred into a 10 mL clean glass vial. To this 0.304 mL of ethanol (4.5%) was added, vortexed and sonicated. To this 1.350 mL of propylene glycol (20%) was added, vortexed and sonicated. 2.024 mL of PEG400 (30%) was added, vortexed and sonicated. Finally 3.070 mL of water (45.5%) was added gradually, vortexed and sonicated to make a solution of 4 mg/mL concentration. The final solution was filtered using syringe filter (0.22 μm).
Bioanalysis was performed using fit-for-purpose LC-MS/MS method for the quantification of 3 in rat plasma samples. The calibration curve (CC) for the method consisted of nine non-zero calibration standards along with a double blank and zero standard samples. Study samples were analyzed along with two sets of quality control samples (6 QC samples; low, medium and high QC samples in triplicate). Briefly, the LC-MS/MS method used the following parameters: a) gradient mobile phase (Pump A: 0.1% Formic acid in water; Pump B: 100% methanol); b) XBridge C8, 50×4.6 mm, 3.5μ (Waters) column; c) 10 μL injection volume; d) 1.00 mL/min flow rate; e) 3.50 min run time; f) 10° C. sample cooler temperature; and g) 40° C. column oven temperature. The sample calibration curve was 1.02-1023 ng/mL, with an internal standard (telmisartan) at 0.2 μg/mL. Briefly, biological samples were prepared as follows: 50 μL of sample was mixed with 150 μL of internal standard, then mixture was vortexed for 5 min at 800 rpm, followed by centrifugation at 4000 rpm for 5 min; 150 μL of the sample supernatant was transferred into a separate tube and diluted with 75 μL of methanol: water (1:1), followed by injection into LC/MS/MS.
Plasma pharmacokinetic parameters were calculated using the non-compartmental analysis tool of Phoenix software (Version 6.3) and were determined from individual animals in each group. The area under the plasma concentration-time curve (AUC0-t and AUCinf), elimination half-life (T1/2), clearance (CL), volume of distribution (Vss) and Mean residence time (MRT) were calculated from intravenous group. The peak plasma concentration (Cmax), time to achieve peak plasma concentration (Tmax), AUC0-t and AUCinf, and absolute oral bioavailability (F) were calculated from the oral group.
The mean plasma concentration-time profiles are shown in FIGS. 10 and 11, i.e. the mean concentration values of the individual values obtained from each rat in the study group at the indicated time points.

[4] = Microsomal stability, positive control assays; format: in vitro ADME; details: microsomes used in the study
Protocol: Data were also obtained for the stability of Compound 3 when incubated with a microsomal preparation. Drug metabolism can occur, at least in part, in cellular microsomes, and thus the assay assesses the stability of drug to metabolic modification. The concentration of compound 3 was 1 μM in the assay system and the indicated microsomes were present at 0.5 mg total protein per milliliter. The concentration of intact drug was determined at the indicated timepoints using a LC-MS/MS assay. The enzyme activity of the microsomes used in this study were assessed using a positive control, testosterone.

[5] = male, Sprague Dawley, plasma, IV 5 mg/kg, solution

Sequence of BTK (Q06187 whole entry): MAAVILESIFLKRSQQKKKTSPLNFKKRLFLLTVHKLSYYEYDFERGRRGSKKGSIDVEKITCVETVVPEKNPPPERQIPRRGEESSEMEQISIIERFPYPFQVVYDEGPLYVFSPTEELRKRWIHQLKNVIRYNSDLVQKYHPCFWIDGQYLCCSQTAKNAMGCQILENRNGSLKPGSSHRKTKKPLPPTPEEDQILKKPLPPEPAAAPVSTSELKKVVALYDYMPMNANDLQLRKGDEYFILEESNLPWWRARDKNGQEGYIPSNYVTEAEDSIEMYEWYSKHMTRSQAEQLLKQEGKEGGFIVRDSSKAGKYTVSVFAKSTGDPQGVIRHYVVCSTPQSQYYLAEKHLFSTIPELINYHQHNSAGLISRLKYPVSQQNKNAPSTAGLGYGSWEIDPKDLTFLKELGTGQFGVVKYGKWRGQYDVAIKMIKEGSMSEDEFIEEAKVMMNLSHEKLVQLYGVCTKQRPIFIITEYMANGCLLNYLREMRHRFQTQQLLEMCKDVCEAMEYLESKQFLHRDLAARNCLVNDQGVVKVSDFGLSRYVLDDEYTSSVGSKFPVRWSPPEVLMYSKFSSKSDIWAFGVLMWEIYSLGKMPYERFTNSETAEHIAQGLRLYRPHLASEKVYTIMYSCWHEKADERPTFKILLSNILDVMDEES
T1 sequence (Q06187 whole entry): as above

For `C=CC(=O)Nc1cccc(-c2nc(Nc3cccc(N4CCN(C)CC4)c3)ncc2Cl)c1` [Compound 1, N-(3-(5-chloro-2-((3-(4-methylpiperazin-1-yl)phenyl)amino)pyrimidin-4-yl)phenyl)acrylamide], the IC50 [1] was 29 nM and 14 nM and the IC50 [2] was 14.2 nM.
For `C=CC(=O)Nc1cccc(-c2nc(Nc3cccc(N4CCOCC4)c3)ncc2Cl)c1` [Compound 2, N-(3-(5-chloro-2-((3-morpholinophenyl)amino)pyrimidin-4-yl)phenyl)acrylamide], the IC50 [1] was 70 nM.
`C=CC(=O)Nc1cccc(-c2nc(Nc3cccc(N4CCN(C)CC4)c3)nc3[nH]ncc23)c1` [Compound 4, N-(3-(6-((3-(4-methylpiperazin-1-yl)phenyl)amino)-1H-pyrazolo[3,4-d]pyrimidin-4-yl)phenyl)acrylamide] showed an IC50 [1] of 9 nM and an IC50 [2] of 9.1 nM.
`C=CC(=O)Nc1cccc(-c2nc(Nc3cccc(N4CCOCC4)c3)nc3[nH]nc(Cl)c23)c1` [Compound 5, N-(3-(3-chloro-6-((3-morpholinophenyl)amino)-1H-pyrazolo[3,4-d]pyrimidin-4-yl)phenyl)acrylamide] gave an IC50 [1] of 96 nM and an IC50 [2] of 175 nM.
For `C=CC(=O)Nc1cc(-c2nc(Nc3cccc(N4CCOCC4)c3)nc3[nH]nc(Cl)c23)ccc1Cl` [Compound 6, N-(2-chloro-5-(3-chloro-6-((3-morpholinophenyl)amino)-1H-pyrazolo[3,4-d]pyrimidin-4-yl)phenyl)acrylamide], the IC50 [1] was no less than 100000 nM and the IC50 [2] was greater than 100000 nM.
For `C=CC(=O)Nc1cccc(-c2nc(Nc3cccc(N4CCOCC4)c3)nc3[nH]cc(Cl)c23)c1` [Compound 7, N-(3-(5-chloro-2-((3-morpholinophenyl)amino)-7H-pyrrolo[2,3-d]pyrimidin-4-yl)phenyl)acrylamide], the IC50 [1] was 96 nM and the IC50 [2] was 175 nM.
Work on `C=CC(=O)Nc1cccc(-c2nc(Nc3cccc(N4CCOCC4)c3)nc3[nH]ccc23)c1` [Compound 8, N-(3-(2-((3-morpholinophenyl)amino)-7H-pyrrolo[2,3-d]pyrimidin-4-yl)phenyl)acrylamide] yielded an IC50 [2] greater than 10000 nM.
Work on `C=CC(=O)Nc1cccc(-c2nc(Nc3cccc(N4CCNCC4)c3)nc3[nH]ncc23)c1` [Compound 9, N-(3-(6-((3-(piperazin-1-yl)phenyl)amino)-1H-pyrazolo[3,4-d]pyrimidin-4-yl)phenyl)acrylamide] yielded an IC50 [2] of 14 nM.
`C=CC(=O)Nc1cccc(-c2nc(Nc3cccc(N4CCNCC4)c3)ncc2Cl)c1` [Compound 10, N-(3-(5-chloro-2-((3-(piperazin-1-yl)phenyl)amino)pyrimidin-4-yl)phenyl)acrylamide] gave an IC50 [2] of 70 nM.
With `C=CC(=O)Nc1cccc(-c2nc(Nc3cccc(N4CCOCC4)c3)nc3[nH]ncc23)c1` [SC-1344, N-(3-(6-((3-morpholinophenyl)amino)-1H-pyrazolo[3,4-d]pyrimidin-4-yl)phenyl)acrylamide] the “Vss relative to total body water normalized to body weight (0.7 L/kg)” value ([3]; IV 5 mg/kg) was “approximately 11 fold”, the clearance [3, 5] was 79.7 mL/min/kg and the half-life [3, 5] was 2.71 h. For the same compound, the AUC(0-t) [3, 5] was 1060 ng·h/mL, the Vd ([3]; male, Sprague Dawley, plasma, IV 5 mg/kg, solution, read-out: Vss) was 7.91 L/kg and the bioavailability ([3]; male, Sprague Dawley, plasma, PO 20 mg/kg vs IV 5 mg/kg, AUC0-t and nominal doses used, read-out: F (absolute oral bioavailability)) was 2.44%. For the same compound, the AUC(0-t) ([3]; male, Sprague Dawley, plasma, PO 20 mg/kg, solution) was 104 ng·h/mL and the Cmax ([3]; male, Sprague Dawley, plasma, PO 20 mg/kg, solution, read-out: Cmax) was 23.1 ng/mL.
For `C[C@]12CC[C@H]3[C@@H](CCC4=CC(=O)CC[C@@]43C)[C@@H]1CC[C@@H]2O` [testosterone], the “Disappearance of positive control in microsomes” value [4] was “rapid disappearance”.
